The values that follow come from PMC8012336, “An automated and high-throughput-screening compatible pluripotent stem cell-based test platform for developmental and reproductive toxicity assessment of small molecule compounds” (Cell Biology and Toxicology, 2020).

The structures appear in SMILES notation. ≈ marks a conversion by molar mass, not a printed value.

The assay relates to mESC-D3. Type of assay: cell-based, mouse. On the procedure: As an alternative to the morphological analysis at day 10, differentiation can be analyzed at day 7 of the assay by flow cytometry using the molecular flow EST (Buesen et al. [2009]). Previously, staining of cardiomyocytes was performed using an unconjugated primary monoclonal antibody directed against the sarcomeric MHC (clone MF20), followed by binding of a secondary biotin-conjugated goat anti-mouse IgG antibody which is then detected with the fluorochrome PE-SA (phycoerythrin-conjugated streptavidin) (Seiler and Spielmann [2011]). […] Of note, these experiments were performed in parallel with the same batch of spontaneously differentiated mESCs.
Embryoid bodies were formed in hanging drops (Petri dish) as already described. On day 5 of the assay, the EBs were transferred into a larger Petri dish and incubated for two more days at 37 °C, 5% CO2, and 95% humidity. Afterward, the EBs were dissociated using the Embryoid Body Dissociation Kit (Miltenyi Biotec, Cat. No. 130-096-348). EBs from two Petri dishes were harvested in one 15 ml tube and washed once with 10 ml PBS. The supernatant was discarded after centrifugation and a pre-warmed enzyme mix was added. The EB/enzyme mix was incubated for 10 min at 37 °C, dissociated for 1 min with a 1000 μl pipette, incubated for 5 min and mechanically dissociated again for 1 min. After the addition of 3 ml PBS, the cell suspension was passed through a 70-μm filter into a new 15-ml tube. The filter was then washed with 3 ml PBS and discarded afterward. The cell suspension was centrifuged for 5 min at 300 rpm. The supernatant was discarded afterward, cells were suspended in PBS and counted. For viability staining, 10^6 cells were suspended in 100 μl staining reagent (LIVE/DEAD™ Fixable Green Dead Stain Kit, Life Technologies, Cat. No. L34969), incubated for 30 min at 4 °C and washed with 1 ml PBS. For fixation, cells were suspended in 100 μl fixation buffer (BioLegend, Cat. No. 420801) and incubated 20 min at room temperature. For the intracellular staining, cells were washed twice with 1 ml permeabilization buffer (BioLegend, Cat. No. 421002) and suspended in 50 μl permeabilization buffer supplemented with 50 μl of pre-diluted (1:5) antibody (mouse IgG2B anti-human Myosin Heavy Chain APC-conjugated, mouse IgG2B APC-conjugated isotype control, R&D Systems, Cat. No. IC4470A). After 1 h incubation at room temperature cells were washed twice with 1 ml permeabilization buffer and suspended in FACS buffer. Within 2–3 h samples were measured on an LSR II flow cytometer (Beckton Dickinson). Data analysis was done using FlowJo software (Version 10.0.8; Tree Star).

Consider `CCCC[C@@H](C)[C@@H](OC(=O)C[C@@H](CC(=O)O)C(=O)O)[C@H](C[C@@H](C)C[C@H](O)CCCC[C@@H](O)C[C@H](O)[C@H](C)N)OC(=O)C[C@@H](CC(=O)O)C(=O)O` [Fumonisin, fumonisine B1], for which the “ID50 FACS (MHC-positive cells)” value (flow cytometry, day 7) stood at 2.26 µg/mL (≈ 3.13 µM). This compound also returned an MHC-positive cells (treated with 10 μg/ml, untreated 31% (hydroxyurea), 26% (fumonisine B1)) of 3%.
